From PMC5193077, “An Allosteric Potentiator of the Dopamine D1 Receptor Increases Locomotor Activity in Human D1 Knock-In Mice without Causing Stereotypy or Tachyphylaxis” (The Journal of Pharmacology and Experimental Therapeutics, 2017)
Where “and” joins values, the source holds several entries; their conditions need not be identical. Equal entries are not always repeated.

Key:
rat D1 receptor = biological target: T1, rat D1 receptor (Rattus norvegicus, UniProt P18901); assay: cAMP response in rD1 HEK293 cells; type: cell-based
T1 construct: expressed in transfected cells

hD1 mice [1] = assay: Video-tracking of horizontal motion, rearing and grooming in hD1 mice; type: in vivo, mouse
Excerpt: The apparatus for the video-tracking assessment experiment included 12 custom-built video-tracking observation chambers and the HomeCageScan (CleverSys, Reston, VA) software system. The chambers, measuring (in inches) 8 width × 10 length × 8 height, consisted of two end walls, a back wall, a top, and a floor constructed of ¼-in. translucent white acrylic, and one side (front) constructed of clear acrylic. LED strip lighting was placed below the chamber for illumination. A color video camera (640 × 480, 30 frames per second) was placed in front of each chamber to record behavior from a side view. The chambers were located in large sound-attenuating chambers to reduce ambient room noise and isolate lighting. The cameras were connected in groups of four to a quad multiplexer (model NVQC-42N; Nuvico, Englewood, NJ), with each multiplexer connected to its own computer, which then recorded each session to an MPEG file.
At the end of the experiment the files were batch-analyzed by a computer running the CleverSys CageScan video-tracking software. This software can recognize and quantify several different behaviors, including LMA, grooming, rearing, immobility, and feeding behaviors. The current experiment examined behavior in a novel open-field environment rather than home-cage activity, which limited behaviors of interest to LMA, grooming, and rearing.
For HomeCageScan behavioral phenotyping, male D1 knock-in mice (8–12 weeks, 20–25 g body weight) were placed into the observation chambers for a 60-minute habituation session. […] All behavioral activity was monitored and scored by the HomeCageScan system.

β1 receptor = β1 receptor (Homo sapiens, UniProt P08588); assay: β1 cAMP assay (DiscoveRx); type: cell-based; details: potentiator, agonist and antagonist mode, up to 10 µM
Protocol: (§1) The D2, β1, β2, β3, and 5HT6 cAMP assays were performed at DiscoveRx using the protocols described on their website (www.discoverx.com).

β2 receptor = β2 receptor (Homo sapiens, UniProt P07550); assay: β2 cAMP assay (DiscoveRx); type: cell-based; details: potentiator, agonist and antagonist mode, up to 10 µM
Protocol: as §1

human D1 receptor [2] = biological target: T2, human D1 receptor (Homo sapiens, UniProt P21728); assay: cAMP potentiation, transiently expressed human D1 receptor in HEK293 cells; type: cell-based; details: Human D1, transient
[3] = test system: 10 additional targets from the standard Lilly selectivity panel; assay: Standard Lilly selectivity panel, additional targets
D2 receptor = D2 receptor (Homo sapiens, UniProt P14416); assay: D2 cAMP assay (DiscoveRx); type: cell-based; details: potentiator, agonist and antagonist mode, up to 10 µM
Protocol: as §1

dog D1 receptor = dog D1 receptor (Canis lupus familiaris, UniProt A0A8I3RQT9); assay: cAMP potentiation, transiently expressed dog D1 receptor in HEK293 cells; type: cell-based; details: Dog D1, transient
Protocol: The human, rhesus monkey, dog, or mouse D1 receptor was cloned into the Jump-In vector system (Life Technologies, Austin, TX) and transiently transfected into HEK293 cells using Fugene HD (Promega, Madison, WI). After 2 days of growth in DMEM medium containing 10% FBS, 10 mM HEPES, and 100 µg/ml ampicillin at 37°C in 5% CO2, the cells were harvested with TrypLE Express (GIBCO), resuspended in FBS containing 8% DMSO, and stored in 1-ml aliquots (10 × 10^6 cells/ml) at −70°C. The cAMP accumulation was measured as described for hD1 except that 6000 to 10,000 cells per well were used and the EC20 concentration of dopamine used was 0.7 nM (final).

wild-type C57Bl/6 mice = assay: Locomotor activity (LMA) in wild-type C57Bl/6 mice; type: in vivo, mouse
[4] = biological target: T3, rhesus monkey D1 receptor (Macaca mulatta, UniProt O77680); assay: cAMP potentiation, transiently expressed rhesus monkey D1 receptor in HEK293 cells; type: cell-based; details: Rhesus D1, transient
T3 construct: expressed in transfected cells; host or cells: HEK293, transient (Fugene HD)

mouse D1 receptor = biological target: T4, mouse D1 receptor (Mus musculus, UniProt Q61616); assay: cAMP potentiation, transiently expressed mouse D1 receptor in HEK293 cells; type: cell-based
T4 construct: expressed in transfected cells; host or cells: HEK293, transient (Fugene HD)

5HT2B receptor = 5HT2B receptor (Homo sapiens, UniProt P41595); assay: Standard Lilly selectivity panel, 5HT2B receptor
5HT6 receptor = 5HT6 receptor (Homo sapiens, UniProt P50406); assay: 5HT6 cAMP assay (DiscoveRx); type: cell-based; details: potentiator, agonist and antagonist mode, up to 10 µM
Protocol: as §1

human D1 receptor [5] = biological target: T2, human D1 receptor; assay: 3H-SCH23390 binding to human D1 HEK293 cell membranes; details: 1-100 nM DETQ
hD1 mice [6] = assay: Locomotor activity (LMA) in hD1 mice; type: in vivo, mouse
Excerpt: Male hD1 mice, 8–10 weeks old (weighing 18 to 25 g at the time of the experiment), were used. Monitoring of mouse LMA took place in transparent plastic shoebox cages having dimensions of 45 × 25 × 20 cm, with a 1-cm depth of wood chips for absorbent bedding, and covered with a ventilated filtered plastic cage top.
Cages were placed in a rectangular frame containing a grid of 12 photocell beams in an 8 × 4 configuration (Kinder Scientific, Poway, CA) that were positioned 2.5 cm from the floor of the cage for the detection of body movements (ambulations), which were recorded by computer for analysis. Mice were placed inside individual LMA boxes for 1 hour during an acclimation period. Mice were then dosed with test compounds (oral or subcutaneous) and were replaced inside individual LMA boxes for the start of LMA. Photocell activity (total ambulations) was collected for 60 minutes using software from Hamilton Kinder (Poway, CA).
Calculation of data based on total ambulations was done using Excel (Microsoft, Redmond, WA). Graphing and statistical analysis of data were done using one-way analysis of variance followed by Dunnett’s multiple comparison test using GraphPad Prism.

[7] = Free (unbound) brain concentrations of DETQ in hD1 mice; type: in vivo, mouse
Protocol: Immediately after the LMA measurements described in Fig. 8, the brains were removed, and brain homogenate concentrations were determined by liquid chromatography with tandem mass spectrometry. The unbound fraction in brain was determined by equilibrium dialysis in a mouse brain homogenate mixture after incubation of the compound for 4.5 hours ([Kalvass et al., 2007]).
The unbound brain concentrations were calculated from the following equation: […]

5HT2B receptor, sequence (P41595 whole entry): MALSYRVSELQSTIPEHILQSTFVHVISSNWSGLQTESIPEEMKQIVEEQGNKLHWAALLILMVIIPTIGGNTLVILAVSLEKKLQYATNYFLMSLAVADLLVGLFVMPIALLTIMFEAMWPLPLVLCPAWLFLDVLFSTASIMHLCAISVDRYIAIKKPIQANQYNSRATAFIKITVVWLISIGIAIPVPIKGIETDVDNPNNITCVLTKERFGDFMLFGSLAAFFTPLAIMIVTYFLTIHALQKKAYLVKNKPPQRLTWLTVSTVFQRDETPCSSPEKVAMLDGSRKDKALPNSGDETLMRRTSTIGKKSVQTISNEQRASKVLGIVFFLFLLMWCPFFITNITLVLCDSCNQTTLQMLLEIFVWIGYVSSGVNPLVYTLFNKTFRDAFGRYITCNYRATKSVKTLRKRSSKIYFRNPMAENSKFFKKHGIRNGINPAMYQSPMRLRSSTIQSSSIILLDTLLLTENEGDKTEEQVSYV
T2 sequence (P21728 whole entry): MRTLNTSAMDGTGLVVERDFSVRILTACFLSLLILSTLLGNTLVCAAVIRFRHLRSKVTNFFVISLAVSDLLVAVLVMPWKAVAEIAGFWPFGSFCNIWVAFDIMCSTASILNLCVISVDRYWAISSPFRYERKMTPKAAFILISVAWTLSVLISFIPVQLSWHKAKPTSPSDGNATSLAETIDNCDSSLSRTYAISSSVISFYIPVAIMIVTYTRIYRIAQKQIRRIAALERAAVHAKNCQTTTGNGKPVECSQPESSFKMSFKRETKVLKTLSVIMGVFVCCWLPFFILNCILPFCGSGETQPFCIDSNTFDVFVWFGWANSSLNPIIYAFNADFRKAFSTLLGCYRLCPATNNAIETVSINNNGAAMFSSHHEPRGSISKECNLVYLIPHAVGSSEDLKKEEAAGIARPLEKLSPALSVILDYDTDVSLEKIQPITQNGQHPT
T4 sequence (Q61616 whole entry): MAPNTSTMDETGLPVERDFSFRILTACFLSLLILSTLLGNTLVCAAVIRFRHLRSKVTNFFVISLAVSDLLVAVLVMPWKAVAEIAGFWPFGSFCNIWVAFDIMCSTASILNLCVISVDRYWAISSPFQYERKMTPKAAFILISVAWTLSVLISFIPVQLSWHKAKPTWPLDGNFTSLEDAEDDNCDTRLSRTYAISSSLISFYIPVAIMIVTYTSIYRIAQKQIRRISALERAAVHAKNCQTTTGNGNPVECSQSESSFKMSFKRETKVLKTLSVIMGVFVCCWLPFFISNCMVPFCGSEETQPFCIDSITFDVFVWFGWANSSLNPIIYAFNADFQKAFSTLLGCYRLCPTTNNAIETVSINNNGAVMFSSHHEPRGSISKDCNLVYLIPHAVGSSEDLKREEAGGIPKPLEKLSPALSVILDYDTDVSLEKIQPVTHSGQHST
T1 sequence (P18901 whole entry): as the sequence (Q61616 whole entry) above, with T11A, V15A, F91L, S93P, A181T, T245A, S254A, M370V, R403K, P410A counted along it
T3 sequence (O77680 whole entry): as the sequence (P21728 whole entry) above, with N311I counted along it
dog D1 receptor, sequence (A0A8I3RQT9 1-446): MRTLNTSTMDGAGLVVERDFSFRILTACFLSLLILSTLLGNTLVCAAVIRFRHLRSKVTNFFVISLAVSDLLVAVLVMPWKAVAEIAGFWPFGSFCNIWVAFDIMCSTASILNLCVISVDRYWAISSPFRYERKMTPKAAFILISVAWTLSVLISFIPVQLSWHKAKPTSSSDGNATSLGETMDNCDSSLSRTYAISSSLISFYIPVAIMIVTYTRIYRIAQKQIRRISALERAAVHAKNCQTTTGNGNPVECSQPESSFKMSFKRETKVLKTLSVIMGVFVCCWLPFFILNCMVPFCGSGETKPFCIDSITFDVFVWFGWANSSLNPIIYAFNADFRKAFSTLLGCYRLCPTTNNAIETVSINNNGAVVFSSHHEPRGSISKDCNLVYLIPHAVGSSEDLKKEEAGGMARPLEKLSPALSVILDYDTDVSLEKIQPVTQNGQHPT
β2 receptor, sequence (P07550 whole entry): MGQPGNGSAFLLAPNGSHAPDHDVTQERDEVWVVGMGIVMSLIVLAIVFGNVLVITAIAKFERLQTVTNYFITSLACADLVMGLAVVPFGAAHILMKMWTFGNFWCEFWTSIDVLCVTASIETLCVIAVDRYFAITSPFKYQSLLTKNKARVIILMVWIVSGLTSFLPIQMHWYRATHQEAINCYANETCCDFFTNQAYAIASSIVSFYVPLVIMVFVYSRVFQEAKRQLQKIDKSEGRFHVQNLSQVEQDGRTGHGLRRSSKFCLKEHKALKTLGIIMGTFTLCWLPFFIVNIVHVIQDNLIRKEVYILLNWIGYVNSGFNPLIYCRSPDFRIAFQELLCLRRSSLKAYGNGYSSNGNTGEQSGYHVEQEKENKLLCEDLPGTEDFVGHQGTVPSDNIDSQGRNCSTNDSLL
5HT6 receptor, sequence (P50406 whole entry): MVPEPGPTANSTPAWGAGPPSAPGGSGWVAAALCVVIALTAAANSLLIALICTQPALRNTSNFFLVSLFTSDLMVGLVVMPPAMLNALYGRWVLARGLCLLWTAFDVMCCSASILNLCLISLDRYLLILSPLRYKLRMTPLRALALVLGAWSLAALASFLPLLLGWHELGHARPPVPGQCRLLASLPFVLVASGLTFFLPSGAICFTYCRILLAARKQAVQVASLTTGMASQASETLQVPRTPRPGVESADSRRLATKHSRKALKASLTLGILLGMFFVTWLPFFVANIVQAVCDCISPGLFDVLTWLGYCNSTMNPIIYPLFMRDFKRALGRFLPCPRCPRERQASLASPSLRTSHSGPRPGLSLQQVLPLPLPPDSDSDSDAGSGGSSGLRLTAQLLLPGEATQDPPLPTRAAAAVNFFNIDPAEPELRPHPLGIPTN
β1 receptor, sequence (P08588 whole entry): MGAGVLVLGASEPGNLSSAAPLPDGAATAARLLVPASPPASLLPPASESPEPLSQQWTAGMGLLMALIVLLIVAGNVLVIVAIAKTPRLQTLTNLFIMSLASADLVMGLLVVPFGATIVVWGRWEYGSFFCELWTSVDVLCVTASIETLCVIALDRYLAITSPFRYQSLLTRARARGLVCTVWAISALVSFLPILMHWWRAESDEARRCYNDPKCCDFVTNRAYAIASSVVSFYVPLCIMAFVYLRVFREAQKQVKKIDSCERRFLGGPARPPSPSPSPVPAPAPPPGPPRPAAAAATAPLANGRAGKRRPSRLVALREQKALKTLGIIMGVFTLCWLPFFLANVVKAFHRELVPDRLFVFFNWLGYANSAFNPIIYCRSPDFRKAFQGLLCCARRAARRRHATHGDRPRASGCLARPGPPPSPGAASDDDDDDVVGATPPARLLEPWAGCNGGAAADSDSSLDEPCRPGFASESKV
D2 receptor, sequence (P14416 whole entry): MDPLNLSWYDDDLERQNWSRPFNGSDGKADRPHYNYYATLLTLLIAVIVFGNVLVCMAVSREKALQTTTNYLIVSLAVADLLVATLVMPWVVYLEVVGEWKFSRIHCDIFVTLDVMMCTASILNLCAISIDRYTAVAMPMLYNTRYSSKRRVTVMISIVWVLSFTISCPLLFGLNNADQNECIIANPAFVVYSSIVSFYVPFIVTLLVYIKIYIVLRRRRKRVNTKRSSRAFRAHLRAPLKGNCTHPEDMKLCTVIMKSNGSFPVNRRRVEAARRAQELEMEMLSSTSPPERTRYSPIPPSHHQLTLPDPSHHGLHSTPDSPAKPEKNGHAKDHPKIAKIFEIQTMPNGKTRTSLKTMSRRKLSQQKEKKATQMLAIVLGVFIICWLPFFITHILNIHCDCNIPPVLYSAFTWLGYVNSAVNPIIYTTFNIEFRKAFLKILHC

C[C@H]1c2cccc(C(C)(C)O)c2C[C@H](CO)N1C(=O)Cc1c(Cl)cccc1Cl [DETQ, 2-(2,6-dichlorophenyl)-1-((1S,3R)-3-(hydroxymethyl)-5-(2-hydroxypropan-2-yl)-1-methyl-3,4-dihydroisoquinolin-2(1H)-yl)ethan-1-one]
Loss of functional affinity/potency at rat D1 versus human D1 (rat D1 receptor): ~30 fold and 28 fold | Emax (rat D1 receptor; HEK293, rat D1, read-out: Maximum response relative to that of dopamine): 39.9% | EC50 (rat D1 receptor; rat D1, 5 nM dopamine (EC20), n = 4, read-out: EC50, cAMP potentiation): 162 ± 18 nM | Grooming (index of stereotyped behavior) (hD1 mice [1]): only modest changes that did not reach statistical significance | Horizontal locomotion and rearing (hD1 mice [1]): this increase was maintained up to the highest dose tested | Activity at β1 receptor (β1 receptor): inactive | Activity at β2 receptor (β2 receptor): inactive | Top (%) (human D1 receptor [2]): 75.6% | EC50 (human D1 receptor [2]; 0.7 nM dopamine): 11.4 nM | Activity at 10 additional targets of the Lilly selectivity panel [3]: inactive | Activity at D2 receptor (D2 receptor): inactive | Top (%) (dog D1 receptor): 85.2% | EC50 (dog D1 receptor; 0.7 nM dopamine): 8.6 nM | LMA activity in wild-type mice (wild-type C57Bl/6 mice; 3–20 mg/kg orally): inactive in wild-type mice | Increase in LMA (wild-type C57Bl/6 mice; wild-type C57Bl/6 mice, 30 mg/kg oral, P = 0.07, not significant): 32% | Top (%) [4]: 80.0% | EC50 ([4]; 0.7 nM dopamine): 12 nM | Loss of potency/affinity at mouse D1 versus human D1 (mouse D1 receptor): ~30 fold | Top (%) (mouse D1 receptor; Mouse D1, transient): 50.0% | EC50 (mouse D1 receptor; Mouse D1, transient, 0.7 nM dopamine): 312 nM | Stimulation at 5HT2B receptor, potentiator mode (5HT2B receptor; 1 µM): 5% | inhibition at 1 µM (5HT2B receptor; 1 µM, read-out: Inhibition at 5HT2B receptor, antagonist mode): 13% | Stimulation at 5HT2B receptor, potentiator mode (5HT2B receptor; 10 µM): 48% | inhibition at 10 µM (5HT2B receptor; 10 µM, read-out: Inhibition at 5HT2B receptor, antagonist mode): 56% | Activity at 5HT6 receptor (5HT6 receptor): inactive | Effect on affinity of dopamine to inhibit SCH23390 binding (human D1 receptor [5]): increased the affinity of dopamine | EC50 (hD1 mice [6]; Mus musculus, four-parameter fit, unbound brain concentration, hD1 mice, read-out: EC50 in LMA versus unbound brain levels): 9.2 nM | Overt adverse behavioral effects (hD1 mice [6]; any of the doses (up to 240 mg/kg)): no overt adverse behavioral effects were observed | Bottom of LMA versus unbound brain level curve (hD1 mice [6]; four-parameter fit): 40 % of control | Top of LMA versus unbound brain level curve (hD1 mice [6]; four-parameter fit): 1,590 % of control | LMA response after twice-daily dosing (hD1 mice [6]; hD1 mice, 240 mg/kg oral twice daily): No tachyphylaxis | LMA response on repeated once-a-day dosing (hD1 mice [6]; hD1 mice, once daily for 4 days): undiminished on day 4 | Shape of LMA dose-response curve (hD1 mice [6]; hD1 mice, DETQ up to 240 mg/kg): did not show any drop-off at higher doses | ED4X (dose causing a 4-fold increase in LMA) (hD1 mice [6]; habituated hD1 mice, oral): 7.2 mg/kg | Free brain levels after oral dosing ([7]; 240 mg/kg oral, immediately after LMA testing): ~600 nM | concentration at 6 h ([7]; hD1 knock-in, mouse, brain (unbound), 240 mg/kg oral twice daily, at 6 hours, n = 3, read-out: Unbound brain levels): 19.8 ± 1.5 nM | concentration at 12 h ([7]; hD1 knock-in, mouse, brain (unbound), 240 mg/kg oral twice daily, at 12 hours, n = 3, read-out: Unbound brain levels): 30.8 ± 9.4 nM
